Our source for the IC50 values is article PMC6775094, “A robust bacterial assay for high-throughput screening of human 4-hydroxyphenylpyruvate dioxygenase inhibitors” (Scientific Reports, 2019).

This test addresses T1, 4-hydroxyphenylpyruvate dioxygenase (HPD) (Homo sapiens, UniProt P32754).
T1 construct: wild type human HPD (NM_002150.2), pET42b(+), expressed in E. coli C43 (DE3)
The test can be described thus: cell-based.

T1 sequence (P32754 2-393): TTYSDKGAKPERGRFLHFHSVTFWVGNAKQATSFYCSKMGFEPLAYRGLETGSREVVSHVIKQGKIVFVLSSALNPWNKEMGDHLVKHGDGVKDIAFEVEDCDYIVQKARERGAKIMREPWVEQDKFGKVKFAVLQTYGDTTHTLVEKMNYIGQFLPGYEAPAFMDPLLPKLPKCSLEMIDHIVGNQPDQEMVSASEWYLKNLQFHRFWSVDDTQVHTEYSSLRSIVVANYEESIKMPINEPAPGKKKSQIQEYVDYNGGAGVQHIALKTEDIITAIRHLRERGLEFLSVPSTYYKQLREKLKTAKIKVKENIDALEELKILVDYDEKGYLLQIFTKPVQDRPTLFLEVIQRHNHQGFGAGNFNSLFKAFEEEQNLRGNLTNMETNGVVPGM

As usually defined, the IC50 is the concentration that inhibits the measured activity by half. Read a low IC50 as greater potency. `CS(=O)(=O)c1ccc(C(=O)C2C(=O)CCCC2=O)c([N+](=O)[O-])c1` [mesotrione] registered an IC50 of 396 ± 48 nM. The result for `CS(=O)(=O)c1ccc(C(=O)C2C(=O)CCCC2=O)c(Cl)c1` [sulcotrione] reads 187 ± 37 nM; that for `CS(=O)(=O)c1ccc(C(=O)C2C(=O)CCCC2=O)c(Cl)c1COCC(F)(F)F` [tembotrione], 610 ± 15 nM.
